Reference: patent US4395402A, “Analgesic agent” (Zaidan Hojin Biseibutsu Kagaku Kankyu Kai, priority 1980, dated 1983)

Tests used:
enkephalinase = biological target: T1, enkephalinase (Rattus norvegicus, UniProt P07861); assay: Inhibitory activity against enkephalinase (Test 1); assay type: biochemical; settings: for Inhibitory activity to enkephalinase ID50: partially purified enkephalinase from rat brain corpus striatum, substrate methionine-enkephaline, 37° C., 1 hour, HPLC of Tyr-Gly-Gly
T1 construct: homogenizing corpus striatum of rat brain and by partial purification of the brain homogenate; from tissue; host or cells: corpus striatum of rat brain
T1 sequence (P07861 2-750 limits assumed): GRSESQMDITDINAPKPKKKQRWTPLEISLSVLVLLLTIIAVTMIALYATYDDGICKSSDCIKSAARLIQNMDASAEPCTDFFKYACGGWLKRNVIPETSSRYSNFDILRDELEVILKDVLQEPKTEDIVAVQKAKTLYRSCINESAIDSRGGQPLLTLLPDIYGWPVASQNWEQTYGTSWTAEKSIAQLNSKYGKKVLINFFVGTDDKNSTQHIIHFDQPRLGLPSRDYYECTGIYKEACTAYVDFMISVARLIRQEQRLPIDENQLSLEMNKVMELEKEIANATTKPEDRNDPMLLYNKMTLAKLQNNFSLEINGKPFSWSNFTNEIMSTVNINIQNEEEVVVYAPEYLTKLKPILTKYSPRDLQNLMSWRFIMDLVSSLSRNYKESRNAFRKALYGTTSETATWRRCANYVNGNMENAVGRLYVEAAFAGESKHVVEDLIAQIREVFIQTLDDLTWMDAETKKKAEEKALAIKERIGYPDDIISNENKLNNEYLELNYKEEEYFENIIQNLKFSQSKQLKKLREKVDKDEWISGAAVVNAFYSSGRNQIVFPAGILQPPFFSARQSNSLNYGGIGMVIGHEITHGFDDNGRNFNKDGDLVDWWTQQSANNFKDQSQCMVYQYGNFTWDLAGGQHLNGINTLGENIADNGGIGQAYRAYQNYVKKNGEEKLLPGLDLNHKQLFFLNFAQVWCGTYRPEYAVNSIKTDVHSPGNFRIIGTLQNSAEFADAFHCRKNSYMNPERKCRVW
Experimental: To the solution of the test compound so prepared was added the enkephalinase, followed by incubation for five minutes at ambient temperature and further by addition of methionine-enkephaline as the substrate. The admixture so obtained was incubated at 37° C. for 1 hour and then subjected to a high-performance liquid chromatography in such a manner that the Tyr-Gly-GLy (a fragment of the methionine-enkephaline) formed by the enzymatic degradation of methionine-enkephaline was isolated in some fractions of the eluate and the quantity of Tyr-Gly-GLy was determined by an electro-chemically analysing detector.

Wistar rats = assay: Enhancement of morphine analgesia, tail-flick latency (Test 2); assay type: in vivo, rat
Experimental: To Wistar rats (10 week aged, male, body weight 250-300 g) was given intraperitoneally morphine at a dose of 0.5 mg/kg, and these rats receiving the morphine were classified into the group of morphine analgesia-effective rats and the group of morphine analgesia-non-effectiverats according to the classification method described in the "Showa Igakukai Zasshi" Vol. 39, No. 5, pages 537-542 (1979). […] The effect of analgesia was evaluated according to the method of tail-flick latency of rats described in the "Showa Igakukai Zasshi" Vol. 39, No. 5, pages 537-542 (1979). The evaluation of pain threshold of rats according to the tail-flick latency method was made as follows: Radiant heat stimulus was applied to the region of the rat tail which positioned 1 cm away from the tail tip and which had been colored black with a black-dye, and the time of latency involved in the tail flick, namely the period of time lapsing between the time of application of the heat stimulus and the time of the reflective flick response of the tail was measured. The quantity of the heat applied was so controlled that the average time of latency of the tail-flick response appearing in the control group of rats (receiving not the test compound but the morphine) was about 2.0 seconds. The tests were accomplished as long as the maximum value for the tail-flick latency was 7.0 seconds or less, as otherwise the skin of the rat tail could be damaged by the application of heat. In other words, if the time for the tail-flick latency was longer than 7.0 seconds, the tests were stopped to prevent the damage of the rat tail. The radiant heat stimulus was repeated 5 times for each test rat at an interval of 15 minutes and the times of latency in the flick response of the tail measured in each test were averaged. In each test, 5 rats were used.
The difference in the time of the tail-flick latency between the test rats (receiving 250 mg/kg of the test compound plus 0.5 mg/kg of morphine) and the control rats (receiving 0.5 mg/kg of morphine alone) was calculated, and the effect for enhancement of morphine analgesia was estimated in term of the value of percentages which were calculated by the following equation: [formula]

rats = assay: Analgesic activity of test compound administered alone intracisternally, tail-flick latency (Test 3); assay type: in vivo, rat; settings: for Analgesic activity (%) (increase in tail-flick latency): no morphine
Experimental: Analgesic activity was evaluated in term of the value of percentages of increase in the tail-flick latency of the test rats receiving the test compound, as compared to the control rats receiving no test compound.
The test as above was repeated with 2 mcg/kg of naloxone (a specific antogonizer to morphine) being intraperitoneally given into the test rats simultaneously to the intracisternal administration of the bestatin-related compound under test.

ICR-strain mice = settings: 2 g/kg intraperitoneally, 6 mice per group
[1] = 250 mg/kg test compound i.p. + 0.5 mg/kg morphine i.p., morphine analgesia-non-effective rats, versus 0.5 mg/kg morphine alone

SMILES | Inhibitory activity to enkephalinase ID50 (enkephalinase) [milimol] | Analgesia enhancement (%) (Wistar rats; [1]) | further results
CC(C)C[C@H](NC(=O)[C@@H](O)[C@H](N)Cc1ccc(O)cc1)C(=O)O [Compound 8, (2S,3R)-3-amino-2-hydroxy-4-p-hydroxyphenylbutanoyl-(S)-leucine] | 0.37 | 34.5 | Analgesic activity (%) (increase in tail-flick latency) (rats; dose 500 mcg intracisternally): 47.0%
CN1CC[C@]23c4c5ccc(O)c4O[C@H]2[C@@H](O)C=C[C@H]3[C@H]1C5 [Morphine, reference compound] |  |  | Analgesia enhancement (%) (Wistar rats; comparative: morphine 0.5 mg/kg alone (control reference)): 0%; Analgesia enhancement (%) (Wistar rats; comparative: morphine 2 mg/kg alone): 28.4%; Analgesia enhancement (%) (Wistar rats; comparative: morphine 3 mg/kg alone): 35.1%
N[C@H](Cc1ccccc1)[C@H](O)C(=O)NCCC(=O)O [Compound 12, (2S,3R)-3-amino-2-hydroxy-4-phenylbutanoyl-β-alanine] |  | 12.0 | 
N=C(N)NCCC[C@H](NC(=O)[C@H](O)[C@H](N)Cc1ccccc1)C(=O)O [Compound 5, (2S,3R)-3-amino-2-hydroxy-4-phenylbutanoyl-(R)-arginine] | 0.063 | 13.6 | Activity to inhibit enkephalinase in vitro (in words) (enkephalinase; summary statement): high activity to inhibit enkephalinase; Enhancement of the analgesic activity of morphine (in words) (Wistar rats; summary statement): not significantly effective; Analgesic activity (%) (increase in tail-flick latency) (rats; dose 60 mcg intracisternally): 134.0%; Analgesic activity when administered intracisternally in the brain (in words) (rats; summary statement): high analgesic activity
NC(=O)C[C@H](NC(=O)[C@H](O)[C@H](N)Cc1ccccc1)C(=O)O [Compound 13, (2S,3R)-3-amino-2-hydroxy-4-phenylbutanoyl-(R)-asparagine] | 3.12 |  | 
CC(C)C[C@H](NC(=O)[C@H](O)[C@H](N)Cc1ccc(O)cc1)C(=O)O [Compound 9, (2S,3R)-3-amino-2-hydroxy-4-p-hydroxyphenylbutanoyl-(R)-leucine] | 20.68 | 23.1 | 
CSCC[C@H](NC(=O)[C@H](O)[C@H](N)Cc1ccccc1)C(=O)O [Compound 6, (2S,3R)-3-amino-2-hydroxy-4-phenylbutanoyl-(R)-methionine] | 2.54 | 14.7 | 
CC(C)C[C@H](NC(=O)[C@@H](O)[C@H](N)Cc1ccccc1)C(=O)N[C@H](CC(C)C)C(=O)O [Compound 11, (2S,3R)-3-amino-2-hydroxy-4-phenylbutanoyl-(S)-leucyl-(R)-leucine] | 0.95 | 5.2 | 
N[C@H](Cc1ccccc1)[C@H](O)C(=O)NCC(=O)O [Compound 14, (2S,3R)-3-amino-2-hydroxy-4-phenylbutanoyl-glycine] |  | 19.1 | 
CSCC[C@H](NC(=O)[C@@H](O)[C@H](N)Cc1ccccc1)C(=O)O [Compound 7, (2S,3R)-3-amino-2-hydroxy-4-phenylbutanoyl-(S)-methionine] | 2.78 | 10.5 | 
N[C@H](Cc1ccccc1)[C@H](O)C(=O)O [Compound 15, (2S,3R)-3-amino-2-hydroxy-4-phenylbutanoic acid] |  | 14.1 | 
N[C@H](Cc1ccc(O)cc1)[C@H](O)C(=O)N[C@H](Cc1ccccc1)C(=O)O [Compound 10, (2S,3R)-3-amino-2-hydroxy-4-p-hydroxyphenylbutanoyl-(R)-phenylalanine] |  | 27.0 | 
C[C@H](NC(=O)[C@H](O)[C@H](N)Cc1ccccc1)C(=O)O [Compound 4, (2S,3R)-3-amino-2-hydroxy-4-phenylbutanoyl-(R)-alanine] | 5.98 |  | Acute toxicity (survival) (ICR-strain mice): all the mice receiving 2 g/kg of AHPA-D-Ala survived
N[C@H](Cc1ccccc1)[C@H](O)C(=O)N[C@H](CCC(=O)O)C(=O)O [Compound 3, (2S,3R)-3-amino-2-hydroxy-4-phenylbutanoyl-(R)-glutamic] | 30.86 |  | 
CC(C)C[C@H](NC(=O)[C@H](O)[C@H](N)Cc1ccccc1)C(=O)O [Compound 2, (2S,3R)-3-amino-2-hydroxy-4-phenylbutanoyl-(R)-leucine] | 2.40 | 24.9 | 
CC(C)C[C@H](NC(=O)[C@@H](O)[C@H](N)Cc1ccccc1)C(=O)O [Compound 1, (2S,3R)-3-amino-2-hydroxy-4-phenylbutanoyl-(S)-leucine] | 0.62 | 19.5 | 
